{"source": "patent US5770434A", "about": "“Soluble peptides having constrained, secondary conformation in solution and method of making same” (IXSYS Incorporated, priority 1995, dated 1998)", "key": {"[1]": {"system": "ligand-binding protein (in this example, an antibody)", "test": "Panning of phage-displayed peptide library against a ligand-binding protein (antibody), protein A-coated dishes", "settings": "phage-expressed peptide, compared with the general phage population"}, "[2]": {"test": "Solubility of the secreted expressed peptide", "text": "The oligonucleotide encoding this peptide is cloned into a vector that allowed secretion of the expressed peptide. The peptide […]"}}, "data": [{"sequence": "CDDQYYTDHEQGKCEVALYYTG [SEQ. ID. NO.: 63, peptide selected from phage library]", "values": [{"measurement": "ligand binding affinity", "setting": "[1]", "value": "high affinity"}]}, {"sequence": "TQSKCSTDHWLGYIEYFIMCTY [SEQ. ID. NO.: 62, twenty-two amino acid peptide selected from phage library]", "values": [{"measurement": "soluble at a concentration of", "setting": "[2]", "value": "≥ 4", "unit": "mg/mL"}, {"measurement": "ligand binding affinity", "setting": "[1]", "value": "highest affinity"}]}]}
